Literature values as cited in patent US20040039017A1, “Urotensin-II receptor antagonists” (priority 2000, published 2004).

System: rat-isolated aorta
Conditions: Ames et al. Nature 1999, 401, 282

For `CC(C)[C@H](NC(=O)[C@@H]1CSSC[C@H](NC(=O)[C@H](CC(=O)O)NC(=O)[C@@H]2CCCN2C(=O)[C@@H](NC(=O)[C@@H](N)CCC(=O)O)[C@@H](C)O)C(=O)N[C@@H](Cc2ccccc2)C(=O)N[C@@H](Cc2c[nH]c3ccccc23)C(=O)N[C@@H](CCCCN)C(=O)N[C@@H](Cc2ccc(O)cc2)C(=O)N1)C(=O)O` [Human Urotensin-II], the contractile activity is given as “most potent contractile agonist identified to date”.
